In PubChem BioAssay (NCI):
Several values for one entry are separate records, joined by “and”; a condition that tells them apart may be missing. Identical values can stand only once.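 Results reflect a 48-hour exposure of cells in 96-well plates to compound at five concentrations. Here, GI50 denotes the concentration required for 50% inhibition of growth. The concentration for full growth arrest is given as TGI.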

These compounds were tested on MDA-MB-468 breast (assay: NCI anticancer screen, dose series, 48 h).
`O=C(CN1CCN(c2ccc(Cl)cc2)CC1)N1CCN(c2nnc(-c3ccc(Cl)cc3)c(-c3ccc(Cl)cc3)n2)CC1` showed a GI50 of 18.8 µM and a TGI of 65.2 µM. `CC(C)(C)c1[nH]cnc1/C=c1\[nH]c(=O)/c(=C/c2ccccc2)[nH]c1=O` was tested, and the GI50 was 0.0226 µM and the TGI was 28.6 µM. Compound `COc1ccc(-c2nn(-c3cccc(NC(=O)c4ccc5c(c4)OCCO5)c3)cc2-c2ccncc2)cc1Cl` has a GI50 of 1.63 µM and a TGI of 6.48 µM. `Cn1cc(C2=C(c3cccnc3)C(=O)NC2=O)c2ccccc21` was tested, and the GI50 was > 20.1 µM and the TGI was > 25 µM. `CN(C)CCOc1ccc(/C(=C(/CCCl)c2ccccc2)c2ccccc2)cc1` showed a GI50 of 0.682 µM and a TGI of 1.52 µM. In the case of `O=c1c2ccccc2n2n1CC(O)C2` (configuration not stated), the GI50 was > 100 µM and the TGI was > 100 µM. In the case of `O=C(Nc1ccc(Oc2ccc3nc(NC(=O)c4ccccc4)[nH]c3c2)cc1)Nc1cc(C(F)(F)F)ccc1F`, the GI50 was 0.625 µM and the TGI was 5.45 µM. For `C=CC[P+](c1ccccc1)(c1ccccc1)c1ccccc1`, the GI50 was 0.609 µM and the TGI was 9.13 µM. With `CC[C@H](Nc1nc(N)nc(C)c1C#N)c1nc2cccc(NCc3ccc(C(=O)NO)cc3)c2c(=O)n1-c1ccccc1` the GI50 was 1.27 µM and the TGI was 4.42 µM. In the case of `CN1CCN(c2ccc3nc(-c4c(N)c5c(F)cccc5[nH]c4=O)[nH]c3c2)CC1`, the GI50 was 1.46 µM and 0.953 µM and 2.3 µM and the TGI was 3.58 µM and > 2.3 µM and 7.03 µM. `Cc1cnc(/C=N\NC(N)=S)c2cccc(N)c12` was tested, and the GI50 was 0.206 µM and the TGI was 0.504 µM. `O=C(Nc1cccc(Oc2nnc(Cl)c3ccccc23)c1)Nc1ccc(Cl)c(C(F)(F)F)c1` showed a GI50 of 0.689 µM and a TGI of 3.43 µM. `COC(=O)[C@]12CC[C@@H](C)[C@H](C)[C@@H]1C1=CC[C@@H]3[C@@]4(C)C(C=O)=C[C@@](C)(COC(=O)c5ccco5)[C@@H]4C(=O)C[C@@]3(C)[C@]1(C)CC2` was tested, and the GI50 was 0.277 µM. With `CN(C)c1ccc(/C=C(\C#N)c2nc3ccccc3n2C)cc1` the GI50 was 1.76 µM and the TGI was > 100 µM. Compound `CCCC[N+](CCCC)=c1ccc2nc3c(C)cc(N(CC)CC)cc3sc-2c1` has a GI50 of 0.0391 µM and a TGI of 0.351 µM. With `CN1CCN(Cc2ccc(NC(=O)c3cncc(C#Cc4cncc5ncccc45)c3)cc2C(F)(F)F)CC1` the GI50 was 8.72 µM and the TGI was 21.8 µM. Compound `O=C(CF)N(O)c1ccc(/C=C/c2ccccc2)cc1` has a GI50 of 0.0642 µM and a TGI of 0.354 µM. For `CNC(=O)c1ccc2cc(C3(O)CCn4cncc43)ccc2c1` (configuration not stated), the GI50 was > 100 µM and the TGI was > 100 µM. In the case of `CC(=O)O[C@H](C[C@H](C(C)C)N(C)C(=O)[C@@H](NC(=O)[C@H]1CCCCN1C)C(C)C)c1nc(C(=O)N[C@@H](Cc2ccccc2)C[C@H](C)C(=O)O)c(C(C)C)s1`, the GI50 was < 0.00333 µM and the TGI was 0.194 µM. `CC1=C2C(=C[C@@](C)(C=O)[C@@H]2O)C(=O)[C@](C)(O)C12CC2` gave a GI50 of 0.233 µM and a TGI of 0.764 µM. Work on `Cc1noc(C)c1-c1cc(O)cc(C(O)c2ccccc2)c1` (configuration not stated) yielded a GI50 of 1.89 µM and a TGI of 40.6 µM. `N#Cc1ccc(N2Cc3ccccc3OC3=C2C(=O)c2c(O)ccc(O)c2C3=O)cc1` was tested, and the GI50 was 0.132 µM and the TGI was 0.366 µM. `O=C(CCCN1CCOCC1)Nc1ccc(Cn2nnc3c2C(=O)c2nnn(Cc4ccc(NC(=O)CCCN5CCOCC5)cc4)c2C3=O)cc1` showed a GI50 of 0.304 µM and a TGI of 0.817 µM. `CCN1C(=O)NC(=O)C(C)(N2C(=O)c3c(F)c(F)c(F)c(F)c3C2=O)C1=O` (configuration not stated) showed a GI50 of 1.75 µM and a TGI of 5.68 µM. With `Cc1cc(C2=NNC(=O)Cc3cc4c(cc32)OCCO4)cc(C)c1N` the GI50 was 0.523 µM and the TGI was 7.24 µM. In the case of `Oc1c(CN2CCCC2)cc(COCc2ccc(Br)cc2)c2cccnc12`, the GI50 was 0.602 µM and the TGI was 2.14 µM. With `COc1cc2nccc(Oc3ccc(NC(=O)C4(C(=O)Nc5ccc(F)cc5)CC4)cc3)c2cc1Oc1ccc(N)cn1` the GI50 was 2.45 µM and the TGI was 8.82 µM. For `CC1CCN(CCCCCOc2ccc3oc4cc(Cl)ccc4c(=O)c3c2)CC1`, the GI50 was 6.13 µM and the TGI was 13.6 µM. `CN(C)c1ncnc2c1nnn2C1OC(CO)C(O)C1O` (configuration not stated) showed a GI50 of 0.0736 µM and a TGI of 1.16 µM. In the case of `CC(C)(C#N)c1cc(F)cc(C(=O)Nc2cc(Nc3ncccc3-c3ncnc4nc[nH]c34)ccc2F)c1`, the GI50 was > 10 µM and the TGI was > 10 µM. For `COc1ccc(C2=NN(C(=O)c3cc(OC)c(OC)c(OC)c3)C(c3ccc(Cl)cc3)C2)cc1OC` (configuration not stated), the GI50 was 0.585 µM and the TGI was > 100 µM. In the case of `C#C[C@]1(O)CC[C@H]2[C@@H]3CC=C4c5sc(Nc6cccc(C)n6)nc5CC[C@]4(C)[C@H]3CC[C@@]21C`, the GI50 was 2.04 µM and the TGI was 5.68 µM. For `CC(=O)OCC(=O)O[C@@H]1C[C@]2(C(C)C)O[C@@]1(C)[C@@H]1CC[C@@H](C)[C@H]1[C@@H]2OC(=O)/C=C/c1ccccc1`, the GI50 was 13.5 µM and the TGI was 55.6 µM. `C[C@@H]1CC[C@@H]2[C@@H]1[C@H](OC(=O)/C=C/c1ccccc1)[C@]1(C3CCCCC3)C[C@@H](NC(=O)CO)[C@@]2(C)O1` showed a GI50 of 17.1 µM and a TGI of 33.5 µM. `COc1cnc2c(c1)C(=O)c1c-2n(CCCN2CCC(O)CC2)c(=O)c2cc(F)ccc12` was tested, and the GI50 was 0.152 µM and the TGI was 0.438 µM. In the case of `O=[N+]([O-])c1ccc2c(N3CCC(CCCC4CCN(c5ncnc6cc([N+](=O)[O-])ccc56)CC4)CC3)ncnc2c1`, the GI50 was 0.0316 µM and the TGI was > 100 µM. For `O=C1c2ccccc2C(=Cc2ccccc2)c2ccccc21`, the GI50 was 0.565 µM and the TGI was 10.7 µM. Compound `O=C(Nc1ccc(Cl)cc1F)c1cc(I)ccc1O` has a GI50 of 2.1 µM and a TGI of 5.45 µM. `CC/C=C\C/C=C\C[C@H](O)C/C=C1/C(=O)C=C[C@@H]1C/C=C\CCCC(=O)O` gave a GI50 of 2.32 µM and a TGI of 6.71 µM.
